Data reported in article PMC2654417 (Combinatorial chemistry & high throughput screening, 2008).
Read-outs that look alike come from different tables or passages of the source.

What was measured:
[1] = biological target: T1, glucocorticoid receptor (GR) (Homo sapiens, UniProt P04150); assay: GR-EFC nuclear translocation assay; type: cell-based; settings: for qHTS Hill Slope: Hill slope of the qHTS curve fit; for log qEC50: log10 of qEC50 in M, printed as negative values; for qHTS Max Activity: maximal activity of the qHTS curve, inactive threshold […] (3σ)
T1 sequence (P04150 1-777): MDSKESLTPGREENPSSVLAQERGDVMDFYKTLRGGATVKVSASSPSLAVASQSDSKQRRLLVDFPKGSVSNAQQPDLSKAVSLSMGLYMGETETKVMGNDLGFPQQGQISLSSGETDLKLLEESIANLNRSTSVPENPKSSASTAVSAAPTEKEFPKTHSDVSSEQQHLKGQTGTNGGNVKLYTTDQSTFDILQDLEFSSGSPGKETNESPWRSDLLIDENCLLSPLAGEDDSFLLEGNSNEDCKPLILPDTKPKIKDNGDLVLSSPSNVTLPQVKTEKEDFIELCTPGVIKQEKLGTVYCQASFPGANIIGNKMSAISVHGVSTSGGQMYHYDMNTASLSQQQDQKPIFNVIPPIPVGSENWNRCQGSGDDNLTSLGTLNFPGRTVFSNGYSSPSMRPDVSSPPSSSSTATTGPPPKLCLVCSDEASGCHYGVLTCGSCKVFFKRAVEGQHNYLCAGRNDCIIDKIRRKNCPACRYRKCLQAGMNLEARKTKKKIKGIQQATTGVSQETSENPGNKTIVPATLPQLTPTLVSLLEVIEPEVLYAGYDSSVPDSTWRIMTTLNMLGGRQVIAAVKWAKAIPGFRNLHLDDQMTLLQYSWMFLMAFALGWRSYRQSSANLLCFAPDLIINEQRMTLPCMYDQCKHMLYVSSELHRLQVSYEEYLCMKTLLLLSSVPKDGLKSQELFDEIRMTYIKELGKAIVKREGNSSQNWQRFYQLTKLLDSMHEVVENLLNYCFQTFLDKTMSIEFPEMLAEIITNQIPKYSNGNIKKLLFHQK

[2] = biological target: T1, glucocorticoid receptor (GR); settings: GR-rich cell extract; cited from earlier work
[3] = class 4 values are fit defaults
[4] = read-out: qEC50, qHTS curve fit, class 4 values are fit defaults

Structure (SMILES) | log qEC50 [1, 3] | qHTS Max Activity [1] | EC50 [1, 4] [µM] | further results
CC(=O)OCC(=O)[C@@]1(O)CC[C@H]2[C@@H]3CCC4=CC(=O)C=C[C@]4(C)[C@@]3(F)[C@@H](O)C[C@@]21C [NCGC00016433-01] | −7.456 | 80.8 | 0.035 | qHTS Hill Slope [1]: 0.52
CC(C)CCC(=O)O.C[C@@]12CCC(=O)C[C@@H]1CC(=O)[C@H]1[C@H]3CCC[C@]3(C)C(=O)C[C@@H]12 [NCGC00017016-01] | – | – | – | qHTS Curve Class [1]: 4 (inactive, where activity was below 28.6% (3σ for the present assay)); EC50 ([1]; read-out: qEC50): > 9 µM
CC[C@H](CC[C@H](C)[C@@H]1CC[C@@H]2[C@H]3CC=C4C[C@@H](O)CC[C@]4(C)[C@H]3CC[C@]21C)C(C)C [NCGC00016331-01] | – | – | > 9 | –
CC(=O)OCC(=O)[C@H]1CC[C@H]2[C@@H]3CC[C@H]4C[C@H](O)CC[C@]4(C)[C@H]3C(=O)C[C@]12C [NCGC00016783-01] | – | – | > 9 | –
C[C@@]12CC[C@@H]3c4ccc(OS(=O)(=O)O)cc4CC[C@H]3[C@H]1CCC2=O [NCGC00016682-01] | – | – | > 9 | –
C[C@@]12CC[C@H]3[C@@H](CC[C@@H]4C[C@H](O)CC[C@]43C)[C@H]1CC[C@H]2O [NCGC00015090-01] | – | – | > 9 | –
C[C@@H]1[C@H]2CC[C@@H]3[C@@H]4CC=C5C[C@@H](N(C)C)CC[C@]5(C)[C@@H]4CC[C@@]32CN1C [NCGC00016502-01] | – | – | > 9 | –
CC(=O)OCC(=O)[C@@]12OC(C)(C)O[C@@H]1C[C@H]1[C@@H]3C[C@H](F)C4=CC(=O)C=C[C@]4(C)[C@@]3(F)[C@@H](O)C[C@@]12C [NCGC00016436-01] | −7.893 | 47.0 | 0.0128 | –
CC(=O)O[C@H]1CC[C@@]2(C)[C@@H](CC[C@@]3(C)[C@H]2C(=O)C=C2[C@H]4C[C@](C)(C(=O)OCCN5CCCCC5)CC[C@]4(C)CC[C@@]23C)C1(C)C [NCGC00017165-01] | – | – | – | qHTS Curve Class [1]: 4 (inactive, where activity was below 28.6% (3σ for the present assay)); EC50 ([1]; read-out: qEC50): > 9 µM
C[C@@]12CCC(=O)C=C1CC[C@@H]1[C@@H]2[C@H](O)C[C@]2(C)[C@@H]1CC[C@]2(O)C(=O)COC(=O)CCC(=O)[O-].[Na+] [NCGC00016153-01] | −5.952 | 100.0 | 1.12 | qHTS Hill Slope [1]: 0.62
CC(=O)OCC(=O)[C@@]1(OC(C)=O)[C@H](C)C[C@H]2[C@@H]3C[C@H](F)C4=CC(=O)C=C[C@@]4(C)[C@]3(F)[C@H](O)C[C@@]21C [NCGC00016822-01] | −7.111 | 80.7 | 0.0775 | qHTS Hill Slope [1]: 0.44
C[C@]12CC[C@H](O)CC1=CC[C@@H]1[C@H]2CC[C@]2(C)C(=O)CC[C@H]12 [NCGC00015341-01] | – | – | > 9 | –
C[C@@]12CC[C@H](O)C[C@@H]1CC[C@H]1[C@H]2C[C@@H](O)[C@]2(C)[C@@H](C3=CC(=O)OC3)CC[C@@]12O [NCGC00017309-01] | – | – | > 9 | –
C[C@@H]1O[C@H](O[C@@H]2CC[C@@]3(C=O)[C@H]4CC[C@@]5(C)[C@@H](C6=CC(=O)OC6)CC[C@@]5(O)[C@@H]4CC[C@]3(O)C2)C[C@H](O)[C@@H]1O [NCGC00016524-01] | – | – | > 9 | –
CCOC(=O)O[C@]1(C(=O)COC(=O)CC)CC[C@H]2[C@@H]3CCC4=CC(=O)C=C[C@]4(C)[C@H]3[C@@H](O)C[C@@]21C [NCGC00016926-01] | −8.025 | 30.2 | 0.00944 | qHTS Hill Slope [1]: 0.96
CC(=O)C1(O)CCC2C3CCC4=CC(=O)CCC4(C)C3CCC21C (stereo not drawn) [17α-hydroxyprogesterone, reference compound] | – | – | – | EC50 [1]: 2.87 µM
C[C@@]12CCC(=O)C=C1CC[C@H]1[C@H]3CC[C@](O)(C(=O)CO)[C@]3(C)CC[C@@H]12 [NCGC00015886-01] | −6.363 | 41.2 | 0.434 | qHTS Hill Slope [1]: 0.59
C[C@H]1[C@H](C)CC[C@@]2(C(=O)O)CC[C@]3(C)C(=CC[C@H]4[C@@]5(C)C[C@@H](O)[C@H](O)[C@@](C)(CO)[C@@H]5CC[C@@]43C)[C@@H]12 [NCGC00017359-01] | – | – | – | qHTS Curve Class [1]: 4 (inactive, where activity was below 28.6% (3σ for the present assay)); EC50 ([1]; read-out: qEC50): > 9 µM
C[C@]12CC[C@@H]3C(=CCc4cc(O)ccc43)[C@@H]1CCC2=O [NCGC00016451-01] | – | – | – | qHTS Curve Class [1]: 4 (inactive, where activity was below 28.6% (3σ for the present assay)); EC50 ([1]; read-out: qEC50): > 9 µM
C[C@]12C[C@H](O)[C@H]3[C@@H](CCC4=CC(=O)CC[C@@]43C)[C@@H]1CC[C@@H]2C(=O)CO [Corticosterone, reference compound] | – | – | – | EC50 [1]: 0.036 µM; IC50/Kd [3H]dex binding assay [2]: 0.048 [39] μM
